Data reported in US7205317B2, “4[piperidin-4-yliden-(3-carbamoylpheny)methyl]benzamide derivatives and their use for the treatment of pain spinal injuries or gastrointestinal disorders” (AstraZeneca AB, priority 2001, dated 2007).

How the values were obtained:
[1] = biological target: T1, cloned human δ receptor (HDELTA) (Homo sapiens, UniProt P41143); test: Binding assay, displacement of radioligand on membranes of 293S cells expressing cloned human δ receptor; details: 293S cell membranes
T1 construct: expressed in transfected cells; host or cells: human 293S (HEK-293S) cells, geneticin-selected

[2] = biological target: T1, cloned human δ receptor (HDELTA); test: GTP[γ]35S binding functional assay, membranes from HEK-293S cells expressing cloned human opioid receptors; assay type: biochemical
Method: (§1) • A. Human 293S cells expressing cloned human μ, δ, and κ receptors and neomycin resistance were grown in suspension at 37° C. and 5% CO2 in shaker flasks containing calcium-free DMEM 10% FBS, 5% BCS, 0.1% Pluronic F-68, and 600 μg/ml geneticin. • B. Mouse and rat brains were weighed and rinsed in ice-cold PBS (containing 2.5 mM EDTA, pH 7.4). The brains were homogenized with a polytron for 15 sec (mouse) or 30 sec (rat) in ice-cold lysis buffer (50 mM Tris, pH 7.0, 2.5 mM EDTA, with phenylmethylsulfonyl fluoride added just prior use to […] from a 0.5M stock in DMSO:ethanol). Membrane Preparation
Cells were pelleted and resuspended in lysis buffer (50 mM Tris, pH 7.0, 2.5 mM EDTA, with PMSF added just prior to use to 0.1 mM from a 0.1 M stock in ethanol), incubated on ice for 15 min, then homogenized with a polytron for 30 sec. The suspension was spun at 1000 g (max) for 10 min at 4° C. The supernatant was saved on ice and the pellets resuspended and spun as before. The supernatants from both spins were combined and spun at 46,000 g (max) for 30 min. The pellets were resuspended in cold Tris buffer (50 mM Tris/Cl, pH 7.0) and spun again. The final pellets were resuspended in membrane buffer (50 mM Tris, 0.32 M sucrose, pH 7.0). Aliquots (1 ml) in polypropylene tubes were frozen in dry ice/ethanol and stored at −70° C. until use. The protein concentrations were determined by a modified Lowry assay with sodium dodecyl sulfate.
(§2) The agonist activity of the compounds is measured by determining the degree to which the compounds receptor complex activates the binding of GTP to G-proteins to which the receptors are coupled. In the GTP binding assay, GTP[γ]^35S is combined with test compounds and membranes from HEK-293S cells expressing the cloned human opioid receptors or from homogenised rat and mouse brain. Agonists stimulate GTP[γ]^35S binding in these membranes. The EC50 and Emax values of compounds are determined from dose-response curves. Right shifts of the dose response curve by the delta antagonist naltrindole are performed to verify that agonist activity is mediated through delta receptors.

[3] = biological target: T2, delta receptors, rat brain membranes (Rattus norvegicus, UniProt P33533); test: GTP[γ]35S binding functional assay, homogenised rat brain; assay type: biochemical
T2 construct: from tissue; host or cells: rat brain homogenate
Method: as §1, §2

[4] = biological target: T3, delta receptors, mouse brain membranes (Mus musculus, UniProt P32300); test: GTP[γ]35S binding functional assay, homogenised mouse brain; assay type: biochemical
T3 construct: from tissue; host or cells: mouse brain homogenate
Method: as §1, §2

T1 sequence (P41143 whole entry): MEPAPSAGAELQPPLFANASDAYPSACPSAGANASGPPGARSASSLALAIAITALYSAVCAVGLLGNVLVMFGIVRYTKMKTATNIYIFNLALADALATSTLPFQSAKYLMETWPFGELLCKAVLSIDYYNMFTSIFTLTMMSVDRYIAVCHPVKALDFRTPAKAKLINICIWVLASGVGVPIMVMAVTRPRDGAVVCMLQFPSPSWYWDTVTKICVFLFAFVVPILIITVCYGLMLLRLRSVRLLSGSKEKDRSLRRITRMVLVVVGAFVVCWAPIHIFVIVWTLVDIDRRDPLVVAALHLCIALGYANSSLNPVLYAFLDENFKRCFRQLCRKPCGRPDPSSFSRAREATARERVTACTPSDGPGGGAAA
T3 sequence (P32300 whole entry): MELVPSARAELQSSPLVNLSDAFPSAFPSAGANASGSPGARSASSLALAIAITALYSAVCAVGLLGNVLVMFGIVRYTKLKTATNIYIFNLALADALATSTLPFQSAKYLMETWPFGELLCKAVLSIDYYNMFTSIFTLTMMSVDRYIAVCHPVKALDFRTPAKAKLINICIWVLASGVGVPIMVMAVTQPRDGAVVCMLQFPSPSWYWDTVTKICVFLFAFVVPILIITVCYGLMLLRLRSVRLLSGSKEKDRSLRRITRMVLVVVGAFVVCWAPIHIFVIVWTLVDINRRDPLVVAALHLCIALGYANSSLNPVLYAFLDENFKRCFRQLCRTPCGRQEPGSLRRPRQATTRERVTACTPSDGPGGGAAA
T2 sequence (P33533 whole entry): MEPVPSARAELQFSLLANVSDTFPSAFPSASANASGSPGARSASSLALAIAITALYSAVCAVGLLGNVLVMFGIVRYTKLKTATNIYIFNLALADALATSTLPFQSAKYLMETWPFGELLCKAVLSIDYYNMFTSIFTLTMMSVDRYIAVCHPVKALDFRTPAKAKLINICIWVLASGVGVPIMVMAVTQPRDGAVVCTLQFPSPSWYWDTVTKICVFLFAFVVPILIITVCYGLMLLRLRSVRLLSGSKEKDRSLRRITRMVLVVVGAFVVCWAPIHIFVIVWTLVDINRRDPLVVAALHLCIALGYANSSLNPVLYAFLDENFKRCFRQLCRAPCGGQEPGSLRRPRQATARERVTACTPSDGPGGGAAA

| SMILES | IC50 [1] | EC50 [2] | Emax [2] | EC50 [3] | Emax [3] | EC50 [4] | Emax [4] |
| --- | --- | --- | --- | --- | --- | --- | --- |
| CCN(CC)C(=O)c1ccc(C(=C2CCN(Cc3cccs3)CC2)c2cccc(C(N)=O)c2)cc1 [5a] | 0.373 nM | 0.158 nM | 98.1% | 0.613 nM | 181% | 0.818 nM | 170% |
| CCN(CC)C(=O)c1ccc(C(=C2CCN(Cc3ccccn3)CC2)c2cccc(C(N)=O)c2)cc1 [5d, N,N-Diethyl-4-[1-(2-pyridine)methyl-piperidin-4-ylidene-(3-carbamoylphenyl)-methyl]-benzamide] | 0.278 nM | – | – | 0.396 nM | 180% | – | – |
| CCN(CC)C(=O)c1ccc(C(=C2CCN(Cc3ccoc3)CC2)c2cccc(C(N)=O)c2)cc1 [5c] | 0.246 nM | – | – | 0.367 nM | 170% | – | – |
| CCN(CC)C(=O)c1ccc(C(=C2CCN(Cc3ccccc3)CC2)c2cccc(C(N)=O)c2)cc1 [3b, N,N-Diethyl-4-[1-benzylpiperidin-4-ylidene(3-carbamoylphenyl)-methyl]-benzamide] | 0.548 nM | 0.091 nM | 93.8% | 0.403 nM | 179% | 0.539 nM | 165% |
| CCN(CC)C(=O)c1ccc(C(=C2CCN(Cc3ccsc3)CC2)c2cccc(C(N)=O)c2)cc1 [5e, N,N-Diethyl-4-[1-(3-thiophene)methyl-piperidin-4-ylidene-(3-carbamoylphenyl)-methyl]-benzamide] | 0.235 nM | – | – | – | – | – | – |
| CCN(CC)C(=O)c1ccc(C(=C2CCN(Cc3ccco3)CC2)c2cccc(C(N)=O)c2)cc1 [5b] | 0.282 nM | – | – | 0.633 nM | 149% | – | – |
